# From US5696108A, “Protein kinase C inhibitors” (Eli Lilly and Company, priority 1996, dated 1997)
# Where a name gives a salt, the structure may show the parent alone.
# Legend:
# Settings in all cases: Table 1
# PKC-α = PKC-α (Homo sapiens, UniProt P17252); experiment: PKC Enzyme Assay, alpha isozyme; assay type: biochemical
# Experimental: (§1) PKC enzymes=alpha, beta I, beta II, gamma, delta, epsilon, eta and zeta.
# (§2) Assay components in a total volume of 250 μL are as follows:
# (§3) For all the enzymes either histone type HL (Worthington) or myelin basic protein is used as substrate. The assay is started by addition of protein kinase C enzyme incubated at 30° C. for 10 minutes and stopped by adding 0.5 mL of cold trichloroacetic acid (Amresco) followed by 100 μL of 1 mg/mL bovine serum albumin (Sigma, St. Louis, Mo.). The precipitate is collected by vacuum filtration on glass fiber filters employing a TOMTEC™ filtration system and quantified by counting in a beta scintillation counter.
# PKC-β1 = PKC-β1 (Homo sapiens, UniProt P05771); experiment: PKC Enzyme Assay, beta-1 isozyme; assay type: biochemical
# Chain of PKC-β1 (P05771 whole entry): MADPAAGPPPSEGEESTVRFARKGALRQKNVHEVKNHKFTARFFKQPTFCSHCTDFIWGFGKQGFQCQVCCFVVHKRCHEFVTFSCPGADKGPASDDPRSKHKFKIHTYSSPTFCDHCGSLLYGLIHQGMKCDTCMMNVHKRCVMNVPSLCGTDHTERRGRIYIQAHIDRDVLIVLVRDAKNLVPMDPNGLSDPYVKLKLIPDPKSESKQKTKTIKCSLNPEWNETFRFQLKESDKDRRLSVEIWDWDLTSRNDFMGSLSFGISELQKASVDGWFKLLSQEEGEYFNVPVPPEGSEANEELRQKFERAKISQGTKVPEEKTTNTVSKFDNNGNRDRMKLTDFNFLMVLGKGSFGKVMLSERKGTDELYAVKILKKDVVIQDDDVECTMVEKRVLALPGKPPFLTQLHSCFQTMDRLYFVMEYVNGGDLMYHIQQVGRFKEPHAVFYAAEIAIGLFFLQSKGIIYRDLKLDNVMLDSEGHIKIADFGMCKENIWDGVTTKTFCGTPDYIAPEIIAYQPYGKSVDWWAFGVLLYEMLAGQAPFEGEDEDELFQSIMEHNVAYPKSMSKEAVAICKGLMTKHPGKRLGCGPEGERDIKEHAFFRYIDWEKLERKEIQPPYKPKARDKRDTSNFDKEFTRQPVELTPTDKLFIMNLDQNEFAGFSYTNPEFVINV
# Experimental: as §1, §2, §3
# PKC-β2 = PKC-β2 (Homo sapiens, UniProt P05771); experiment: PKC Enzyme Assay, beta-2 isozyme; assay type: biochemical
# Chain of PKC-β2 (P05771 1-673 isoform P05771-2): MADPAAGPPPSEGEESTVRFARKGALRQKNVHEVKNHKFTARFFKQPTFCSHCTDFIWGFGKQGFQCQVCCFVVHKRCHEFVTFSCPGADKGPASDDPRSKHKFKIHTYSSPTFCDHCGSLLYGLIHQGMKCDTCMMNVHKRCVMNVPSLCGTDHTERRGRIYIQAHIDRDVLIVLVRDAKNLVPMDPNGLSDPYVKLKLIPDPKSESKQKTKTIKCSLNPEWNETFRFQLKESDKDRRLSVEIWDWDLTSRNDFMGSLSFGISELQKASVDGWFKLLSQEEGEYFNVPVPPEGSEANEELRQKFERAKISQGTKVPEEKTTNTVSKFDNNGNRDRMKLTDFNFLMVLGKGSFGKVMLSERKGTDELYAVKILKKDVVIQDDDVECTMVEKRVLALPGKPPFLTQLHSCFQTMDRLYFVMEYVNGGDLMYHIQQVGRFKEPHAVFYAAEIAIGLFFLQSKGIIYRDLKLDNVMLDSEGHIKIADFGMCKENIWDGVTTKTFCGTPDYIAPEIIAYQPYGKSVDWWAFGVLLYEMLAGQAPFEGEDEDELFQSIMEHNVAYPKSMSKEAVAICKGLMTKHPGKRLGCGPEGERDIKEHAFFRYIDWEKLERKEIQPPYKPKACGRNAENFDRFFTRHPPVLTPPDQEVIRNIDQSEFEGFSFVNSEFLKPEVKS
# Experimental: as §1, §2, §3
# casein protein kinase II = target: T1, casein protein kinase II (Rattus norvegicus, UniProt P19139); experiment: Casein Protein Kinase II Assay (CK-II); assay type: biochemical
# T1 construct: isolated from rat brain homogenate; from tissue; host or cells: rat brain homogenate
# T1 sequence (P19139 whole entry): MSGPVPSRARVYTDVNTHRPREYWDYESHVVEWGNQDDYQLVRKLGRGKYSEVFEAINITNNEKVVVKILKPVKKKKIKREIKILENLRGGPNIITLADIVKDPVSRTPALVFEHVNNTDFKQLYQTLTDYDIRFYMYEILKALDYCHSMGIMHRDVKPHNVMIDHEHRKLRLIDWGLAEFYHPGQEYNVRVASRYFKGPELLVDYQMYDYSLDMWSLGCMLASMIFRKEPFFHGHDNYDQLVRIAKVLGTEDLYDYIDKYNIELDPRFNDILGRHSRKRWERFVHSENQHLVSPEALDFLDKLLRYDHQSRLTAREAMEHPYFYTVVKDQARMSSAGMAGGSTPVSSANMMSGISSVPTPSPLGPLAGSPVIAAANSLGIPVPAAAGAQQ
# T1 sequence (P67874 2-215 partner limits assumed): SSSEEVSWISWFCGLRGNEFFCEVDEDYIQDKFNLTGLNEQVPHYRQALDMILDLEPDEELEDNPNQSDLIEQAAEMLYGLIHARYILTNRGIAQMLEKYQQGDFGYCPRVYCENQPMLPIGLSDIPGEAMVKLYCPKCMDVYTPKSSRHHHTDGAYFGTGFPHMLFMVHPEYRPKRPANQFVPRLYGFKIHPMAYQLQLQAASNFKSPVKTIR
# Experimental: Casein Protein Kinase II Assay (CK-II)
# The Casein Protein Kinase II Assay is described in Neurochem. […] The assay components are in a total volume of 250 μL: 20 mM Tris-HCl, pH 7.5, 5 mM sodium fluoride, 50 mg/mL Casein (Sigma, St. Louis, Mo.), 10 mM magnesium chloride (Sigma, St. Louis, Mo.), 10 μL DMSO or DMSO/inhibitor and 30 μm (gamma-32P) ATP (DuPont). Initiation of the reaction is performed by addition of casein protein kinase II (isolated from rat brain homogenate), incubated at room temperature for 10 minutes and stopped by the addition of 0.5 mL ice cold Trichloroacetic acid (Amresco) followed by 100 μL of 1 mg/mL bovine serum albumin (Sigma, St. Louis, Mo.). The precipitate is collected by vacuum filtration on glass fiber filters and quantified by counting in a beta scintillation counter.
# Assay components in order of addition
# 10 μL or DMSO or DMSO/inhibitor
# 25 μL of AT32P in 300 μM magnesium chloride
# 40 μL of enzyme (undiluted)
# Buffer prepared as follows:
# (Final volume=3.5 mL: amount of 20 assays)
# src = target: T2, src (Homo sapiens, UniProt P12931); experiment: Protein Tyrosine Kinase Assay (src); assay type: biochemical
# T2 construct: purchased Onogene Science, Inc. PK02 and PK03
# T2 sequence (P12931 whole entry, species assumed): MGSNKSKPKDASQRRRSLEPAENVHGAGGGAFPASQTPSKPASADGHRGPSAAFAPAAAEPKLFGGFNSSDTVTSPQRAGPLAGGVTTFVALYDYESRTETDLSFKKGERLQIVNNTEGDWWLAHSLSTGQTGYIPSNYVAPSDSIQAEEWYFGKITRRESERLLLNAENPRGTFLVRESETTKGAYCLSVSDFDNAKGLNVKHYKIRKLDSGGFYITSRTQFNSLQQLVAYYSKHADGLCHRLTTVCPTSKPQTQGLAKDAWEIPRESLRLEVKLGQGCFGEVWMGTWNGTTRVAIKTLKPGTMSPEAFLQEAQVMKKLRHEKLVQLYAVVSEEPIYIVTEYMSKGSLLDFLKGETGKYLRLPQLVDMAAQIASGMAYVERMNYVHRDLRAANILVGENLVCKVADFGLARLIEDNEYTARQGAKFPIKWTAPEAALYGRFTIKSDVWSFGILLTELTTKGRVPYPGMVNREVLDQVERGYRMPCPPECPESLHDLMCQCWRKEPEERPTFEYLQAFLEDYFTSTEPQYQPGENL
# Experimental: Protein Tyrosine Kinase Assay (src)
# The Assay components are the following:
# 4 μL DMSO or DMSO/inhibitor
# [1] = target: T3, cAMP-dependent kinase catalytic subunit (Bos taurus, UniProt P00517); experiment: cAMP-Dependent protein Kinase Catalytic Subunit Assay; assay type: biochemical, bovine
# T3 construct: purchased Sigma, St. Louis, Mo; host or cells: bovine heart
# Experimental: cAMP-Dependent protein Kinase Catalytic Subunit Assay (PEA) The Assay components are in a total volume of 250 μL: 20 mM HEPES (Sigma, St. Louis, Mo.) buffer pH 7.5, 200 μg/mL histone type HL (Worthington), 10 mM magnesium chloride (Sigma, St. […] The reaction is initiated by addition of bovine heart cAMP-dependent kinase catalytic subunit (Sigma, St. Louis, Mo.), incubated to 30° C. for 10 minutes and stopped by adding 0.5 mL ice cold Trichloroacetic acid (Amresco) followed by 100 μL of 1 mg/mL bovine serum albumin (Sigma). The precipitate is collected by vacuum filtrated on glass fiber filters employing a TOMTEC™ and quantified by counting in a beta scintillation counter. This assay is done identical to the protein kinase C (PKC) enzyme assay except that no phospholipids or diacylglycerol are employed in the assay and the histone substrate is specific for the cAMP-dependent catalytic subunit enzyme.
# [2] = target: calcium calmodulin dependent protein kinase; experiment: Calcium Calmodulin Dependent Protein Kinase Assay (CAM); assay type: biochemical, rat
# Experimental: Calcium Calmodulin Dependent Protein Kinase Assay (CAM)
# The reaction is initiated by the addition of calcium calmodulin dependent protein kinase (isolated from rat brain homogenate), incubated at room temperature for 10 minutes and stopped by adding 0.5 mL ice cold trichloroacetic acid (Amresco) followed by 100 μL of 1 mg/mL bovine serum albumin (Sigma, St. Louis, Mo.). The precipitate is collected by vacuum filtration on glass fiber filters and quantified by counting in a beta scintillation counter.
# 25 μL calmodulin (250 μg/mL)
# 10 μL DMSO or DMSO/inhibitor
SMILES,IC50 (PKC-α) [nM],IC50 (PKC-β1) [nM],IC50 (PKC-β2) [nM],IC50 (casein protein kinase II) [nM],IC50 (src) [nM],IC50 [1] [nM],IC50 [2] [nM]
"O=C1NC(=O)C2=C1c1cn(c3ccccc13)CCOCCn1cc2c2ccccc21 [Example 1, 3,4-[(N,N'-1,1'-ethoxyethyl)-bis-(3,3'-indolyl)]-1H-pyrrole-2,5-dione]",1000,50,40,> 100000,–,–,–
O=C1NC(=O)C2=C1c1cn(c3ccccc13)CCOC(CO)CCn1cc2c2ccccc21 (stereo not drawn) [Example 3],–,–,–,–,> 100000,–,–
O=C1NC(=O)C2=C1c1cn(c3ccccc13)CCOCC(CO)CCn1cc2c2ccccc21 (stereo not drawn) [Example 6],4200,43,35,–,–,–,–
"O=C1NC(=O)C2=C1c1cn(c3ccccc13)CCOCC(CN1CCCC1)CCn1cc2c2ccccc21 (stereo not drawn) [Example 7, 3,4-[(N,N'-1,1'-(2""-ethoxy-(3""'((O)-methylene)-4""'-(N-pyrrolidino)-butane)-bis-(3,3'-indolyl)]-1(H)-pyrrole-2,5-dione hydrochloride salt]",> 5000,150,180,–,–,–,–
"CN(C)CC1CCn2cc(c3ccccc32)C2=C(C(=O)NC2=O)c2cn(c3ccccc23)CCOC1 (stereo not drawn) [Example 8, 3,4-[(N,N'-1,1'-(2""-ethoxy-(3""'((O)-methylene)-4""'-(N,N-dimethylamino)-butane)-bis-(3,3'-indolyl)]-1(H)-pyrrole-2,5-dione hydrochloride salt]",2500,37,32,–,–,–,–
O=C1NC(=O)C2=C1c1cn(c3ccccc13)CCCOC(CN1CCCC1)CCn1cc2c2ccccc21 (stereo not drawn) [Example 12],19000,600,500,> 100000,–,> 100000,93000
O=C1NC(=O)C2=C1c1cn(c3ccccc13)CCCOC(CNCc1ccccc1)CCn1cc2c2ccccc21 (stereo not drawn) [Example 13],> 5000,1900,940,–,–,–,–
O=C1NC(=O)C2=C1c1cn(c3ccccc13)CCCOC(CNS(=O)(=O)c1ccccc1)CCn1cc2c2ccccc21 (stereo not drawn) [Example 15],> 5000,2900,830,–,–,–,–
O=C(NCC1CCn2cc(c3ccccc32)C2=C(C(=O)NC2=O)c2cn(c3ccccc23)CCCO1)OCc1ccccc1 (stereo not drawn) [Example 16],> 5000,3200,2300,–,–,–,–
"O=C1NC(=O)C2=C1c1cn(c3ccccc13)CCOc1ccccc1Cn1cc2c2ccccc21 [Example 27, 3,4-[(N,N'-1,1'-(2""-ethoxy)-benzyl)-bis-(3,3'-indolyl)]-1(H) -pyrrole-2,5-dione hydrochloride]",2200,49,26,–,–,–,–
"O=C(OCc1ccccc1)OCC1CCCn2cc(c3ccccc32)C2=C(C(=O)NC2=O)c2cn(c3ccccc23)CC1 (stereo not drawn) [Example 29, 3,4-[(N,N'-1,1'-(3""-(benzylcarbonate)methylene)hexane)-bis-(3,3'-indolyl)]-1H-pyrrole-2,5-dione]",> 100000,700,800,–,–,–,–
"NCC1CCCn2cc(c3ccccc32)C2=C(C(=O)NC2=O)c2cn(c3ccccc23)CC1 (stereo not drawn) [Example 33, 3,4-[(N,N'-1,1'-(3""-aminomethylene)-hexane)-bis-(3,3'-indolyl)]-1H-pyrrole-2,5-dione]",400,50,40,–,61000,–,600
"O=C1NC(=O)C2=C1c1cn(c3ccccc13)CCCC(Cn1ccnc1)CCn1cc2c2ccccc21 (stereo not drawn) [Example 41, 3,4-[(N,N'-1,1'-(3""-(N-imidazole)methylene)-hexane)-bis-(3,3'-indolyl)]-1H-pyrrole-2,5-dione]",300,–,–,> 100000,91000,–,3000
O=C1NC(=O)C2=C1c1cn(c3ccccc13)CCCCCCCCn1cc2c2ccccc21 [Example 44],> 100000,2000,2000,–,–,–,–
"O=C1NC(=O)C2=C1c1cn(c3ccccc13)CCC(CO)CCn1cc2c2ccccc21 [Example 51, 3,4-[(N,N'-1,1'-(3""-(hydroxy)methylene)pentan)-bis-(3,3'-indolyl)]-1(H)-pyrrole-2,5-dione]",49000,500,500,–,–,–,–
"CN(C)CC1CCn2cc(c3ccccc32)C2=C(C(=O)NC2=O)c2cn(c3ccccc23)CC1 [Example 54, 3,4-[(N,N'-1,1'-(3""-(N,N-(dimethylamino)methylene)pentanyl)-bis-(3,3'-indolyl)]-1(H)-pyrrole-2,5-dione hydrochloride]",160,5,4,–,–,–,–
O=C1NC(=O)C2=C1c1cn(c3ccccc13)CCCOC(CNCc1ccccc1)CCn1cc2c2ccccc21 (stereo not drawn) [Example 55],–,410,380,–,–,–,–

# Further lines, results first:
IC50 (PKC-α) [nM],IC50 (PKC-β1) [nM],IC50 (PKC-β2) [nM],IC50 (casein protein kinase II) [nM],IC50 (src) [nM],IC50 [1] [nM],IC50 [2] [nM],SMILES
–,–,–,> 100000,–,> 100000,5000,CN(C)C[C@H]1CCn2cc(c3ccccc32)C2=C(C(=O)NC2=O)c2cn(c3ccccc23)CCO1 [Example 5r]
–,–,–,> 100000,–,> 100000,8000,CN(C)C[C@@H]1CCn2cc(c3ccccc32)C2=C(C(=O)NC2=O)c2cn(c3ccccc23)CCO1 [Example 5s]
3400,83,87,> 100000,–,> 100000,8800,O=C1NC(=O)C2=C1c1cn(c3ccccc13)CCO[C@@H](CNCc1ccccc1)CCn1cc2c2ccccc21 [Example 18r]
6400,380,300,> 100000,–,> 100000,–,O=C1NC(=O)C2=C1c1cn(c3ccccc13)CCO[C@H](CNCc1ccccc1)CCn1cc2c2ccccc21 [Example 18s]
–,170,44,–,–,–,–,O=C1NC(=O)C2=C1c1cn(c3ccccc13)CCO[C@H](CNS(=O)(=O)c1ccccc1)CCn1cc2c2ccccc21 [Example 21s]
1800,300,240,–,–,–,–,CN1CCN(C[C@@H]2CCn3cc(c4ccccc43)C3=C(C(=O)NC3=O)c3cn(c4ccccc34)CCO2)CC1 [Example 23s]
3500,490,380,–,–,–,–,O=C1NC(=O)C2=C1c1cn(c3ccccc13)CCO[C@H](CN1CCOCC1)CCn1cc2c2ccccc21 [Example 24s]
94000,43,120,> 100000,–,> 100000,22000,O=C(NC[C@H]1CCn2cc(c3ccccc32)C2=C(C(=O)NC2=O)c2cn(c3ccccc23)CCO1)OCc1ccccc1 [Example 25r]
240,19,8,–,–,–,–,O=C1NC(=O)C2=C1c1cn(c3ccccc13)CCC[C@@H](CO)CCn1cc2c2ccccc21 [Example 31r]
400,–,–,> 100000,–,> 100000,41000,"CN(C)C[C@H]1CCCn2cc(c3ccccc32)C2=C(C(=O)NC2=O)c2cn(c3ccccc23)CC1 [Example 40s, (S)-3,4-[(N,N'-1,1'-(3""-(N,N-dimethylamine)methylene)-hexane)-bis-(3,3'-indolyl)]-1H-pyrrole-2,5-dione hydrochloride salt]"
